# pEC50, pIC50: −log10 of the molar value.
# Columns and labels:
# [1] = Half life in rat at 2 mg/kg, iv; type: ADME, organism-based; conditions: in vivo
# [2] = biological target: T1, Nuclear receptor ROR-alpha (Homo sapiens, UniProt P35398); assay: Inverse agonist activity at Gal4-fused RORalpha (unknown origin)
# T1 sequence (P35398 whole entry): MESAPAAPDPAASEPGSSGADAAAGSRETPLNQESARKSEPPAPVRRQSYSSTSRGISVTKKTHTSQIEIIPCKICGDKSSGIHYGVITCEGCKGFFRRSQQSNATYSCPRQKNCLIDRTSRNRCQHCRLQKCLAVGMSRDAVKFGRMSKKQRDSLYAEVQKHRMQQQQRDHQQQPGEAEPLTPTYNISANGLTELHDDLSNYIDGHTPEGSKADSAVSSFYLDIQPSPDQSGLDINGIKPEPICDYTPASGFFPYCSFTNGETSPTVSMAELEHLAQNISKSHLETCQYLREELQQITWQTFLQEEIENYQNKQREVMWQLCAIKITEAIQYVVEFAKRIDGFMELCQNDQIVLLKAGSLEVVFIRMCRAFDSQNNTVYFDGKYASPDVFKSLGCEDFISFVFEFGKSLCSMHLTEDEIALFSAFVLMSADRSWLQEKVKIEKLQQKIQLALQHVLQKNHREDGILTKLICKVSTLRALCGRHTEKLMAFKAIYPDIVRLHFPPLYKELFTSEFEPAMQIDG
# [3] = Clearance in cynomolgus monkey at 1 mg/kg, iv; type: ADME, organism-based, Macaca fascicularis; conditions: in vivo
# Cytochrome P450 2C8 = biological target: T2, Cytochrome P450 2C8 (Homo sapiens, UniProt P10632); assay: Inhibition of recombinant CYP2C8 (unknown origin); type: ADME
# T2 sequence (P10632 whole entry): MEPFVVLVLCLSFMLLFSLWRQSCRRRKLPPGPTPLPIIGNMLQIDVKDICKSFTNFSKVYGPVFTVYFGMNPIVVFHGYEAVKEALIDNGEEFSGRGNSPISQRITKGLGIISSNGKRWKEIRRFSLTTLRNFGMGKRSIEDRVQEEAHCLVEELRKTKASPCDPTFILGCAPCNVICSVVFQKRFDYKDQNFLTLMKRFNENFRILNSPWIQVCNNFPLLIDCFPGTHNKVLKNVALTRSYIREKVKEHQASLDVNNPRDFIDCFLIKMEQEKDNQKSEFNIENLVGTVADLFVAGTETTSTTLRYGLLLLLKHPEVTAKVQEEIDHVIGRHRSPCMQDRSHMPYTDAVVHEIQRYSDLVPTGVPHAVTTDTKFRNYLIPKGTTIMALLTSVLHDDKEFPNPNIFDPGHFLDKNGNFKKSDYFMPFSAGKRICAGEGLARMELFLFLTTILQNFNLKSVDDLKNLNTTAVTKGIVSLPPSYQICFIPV
# [4] = Half life in human liver microsomes in presence of NADPH by LC/MS/MS method; type: ADME, Microsome
# [5] = biological target: T3, Oxysterols receptor LXR-alpha (Homo sapiens, UniProt Q13133); assay: Inverse agonist activity at LXRalpha (unknown origin)
# T3 sequence (Q13133 whole entry): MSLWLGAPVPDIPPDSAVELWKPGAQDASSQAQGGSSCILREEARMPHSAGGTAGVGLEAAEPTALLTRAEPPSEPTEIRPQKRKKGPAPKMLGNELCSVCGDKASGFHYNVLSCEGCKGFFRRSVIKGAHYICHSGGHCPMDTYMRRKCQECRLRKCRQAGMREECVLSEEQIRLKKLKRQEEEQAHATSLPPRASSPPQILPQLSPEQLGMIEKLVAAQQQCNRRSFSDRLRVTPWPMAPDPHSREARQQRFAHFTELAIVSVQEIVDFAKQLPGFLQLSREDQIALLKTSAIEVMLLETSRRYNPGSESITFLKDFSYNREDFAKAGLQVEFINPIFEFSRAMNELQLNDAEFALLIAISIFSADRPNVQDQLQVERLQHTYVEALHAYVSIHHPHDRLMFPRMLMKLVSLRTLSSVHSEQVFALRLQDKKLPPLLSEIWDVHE
# [6] = Cmax in cynomolgus monkey at 1 mg/kg, po; type: ADME, organism-based, Macaca fascicularis; design: dose 1 mg/kg, route oral; conditions: in vivo
# Cytochrome P450 2C9 = Cytochrome P450 2C9 (Homo sapiens, UniProt P11712); assay: Inhibition of recombinant CYP2C9 (unknown origin); type: ADME
# [7] = biological target: T4, Nuclear receptor ROR-beta (Homo sapiens, UniProt Q92753); assay: Inverse agonist activity at Gal4-fused RORbeta (unknown origin)
# T4 sequence (Q92753 whole entry): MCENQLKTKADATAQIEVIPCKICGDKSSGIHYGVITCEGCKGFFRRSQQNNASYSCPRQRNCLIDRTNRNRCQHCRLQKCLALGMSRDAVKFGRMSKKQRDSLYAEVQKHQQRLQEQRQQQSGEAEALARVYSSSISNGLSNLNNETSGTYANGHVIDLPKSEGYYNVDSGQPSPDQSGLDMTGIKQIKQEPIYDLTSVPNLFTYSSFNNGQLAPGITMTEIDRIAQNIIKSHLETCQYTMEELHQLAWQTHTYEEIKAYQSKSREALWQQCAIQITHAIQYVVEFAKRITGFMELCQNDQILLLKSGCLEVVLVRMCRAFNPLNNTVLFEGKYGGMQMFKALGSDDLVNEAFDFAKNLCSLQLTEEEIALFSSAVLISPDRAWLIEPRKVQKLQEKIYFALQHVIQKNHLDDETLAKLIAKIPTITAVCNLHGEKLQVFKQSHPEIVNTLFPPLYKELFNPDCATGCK
# [8] = biological target: T5, Oxysterols receptor LXR-beta (Homo sapiens, UniProt P55055); assay: Inverse agonist activity at LXRbeta (unknown origin)
# T5 sequence (P55055 whole entry): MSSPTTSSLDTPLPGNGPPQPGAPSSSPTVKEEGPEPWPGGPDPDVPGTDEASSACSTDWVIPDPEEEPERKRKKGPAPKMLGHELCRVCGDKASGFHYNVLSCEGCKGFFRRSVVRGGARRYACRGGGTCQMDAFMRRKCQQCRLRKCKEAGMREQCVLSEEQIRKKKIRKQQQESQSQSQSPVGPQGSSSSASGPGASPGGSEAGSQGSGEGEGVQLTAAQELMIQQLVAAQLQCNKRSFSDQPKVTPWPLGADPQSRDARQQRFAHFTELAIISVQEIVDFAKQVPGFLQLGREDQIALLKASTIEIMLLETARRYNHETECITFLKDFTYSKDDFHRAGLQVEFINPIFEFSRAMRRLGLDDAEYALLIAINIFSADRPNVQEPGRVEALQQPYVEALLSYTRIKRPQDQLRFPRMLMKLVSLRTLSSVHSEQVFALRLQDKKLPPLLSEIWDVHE
# Chain of Cytochrome P450 2C9 (P11712 whole entry, the tested form may be a part): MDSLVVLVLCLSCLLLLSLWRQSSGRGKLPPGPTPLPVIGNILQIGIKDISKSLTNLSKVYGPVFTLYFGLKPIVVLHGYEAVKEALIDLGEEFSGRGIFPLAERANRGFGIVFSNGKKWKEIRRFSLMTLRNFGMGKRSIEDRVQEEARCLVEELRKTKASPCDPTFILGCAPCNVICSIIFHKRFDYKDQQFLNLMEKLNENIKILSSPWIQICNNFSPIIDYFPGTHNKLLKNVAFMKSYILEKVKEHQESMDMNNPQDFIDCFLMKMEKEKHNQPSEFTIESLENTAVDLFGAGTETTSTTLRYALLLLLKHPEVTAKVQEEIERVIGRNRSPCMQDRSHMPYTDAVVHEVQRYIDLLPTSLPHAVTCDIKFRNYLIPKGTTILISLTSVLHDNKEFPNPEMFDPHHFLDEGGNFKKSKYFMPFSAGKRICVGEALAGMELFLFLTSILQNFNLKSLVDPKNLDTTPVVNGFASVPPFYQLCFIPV
structure (smiles),measurement,setting,value
C[C@H]1C[C@H](C(=O)O)CC[C@H]1C(=O)N1CC[C@@]2(S(=O)(=O)c3ccc(F)cc3)c3ccc(C(F)(C(F)(F)F)C(F)(F)F)cc3CC[C@@H]12 [BMS-986251],half-life,[1],11 h
same,pEC50,[2],< 5.00
same,clearance,[3],1.1 mL/min/kg
same,pIC50,Cytochrome P450 2C8,4.80
same,half-life,[4],> 2 h
same,pEC50,[5],< 5.12
same,Cmax,[6],3.1 µM
same,pIC50,Cytochrome P450 2C9,< 4.70
same,pEC50,[7],< 5.00
same,pEC50,[8],< 5.12

# — ChEMBL document CHEMBL4616702 (ACS Med Chem Lett, 2020)
